Read-outs that look alike come from different tables or passages of the source.
Experiments:
human cardiomyocytes = conditions: cited from earlier work
zebrafish cardiomyocytes = conditions: 1 μM, data from Nemtsas et al. 2010; cited from earlier work
hiPSC-CMs = experiment: Conduction velocity computed from measurements of the extracellular potential in a collection of hiPSC-CMs; assay type: cell-based, human; conditions: doses 1-10 μM
Protocol: From the U data 430, we include the value at each time point and each electrode (see (14)), and the conduction velocity is computed using the time points in which U crosses 0 mV after the peak in different electrodes (see (15) and FIG. 1). Given that U is measured at each electrode, another metric can be the time tcv for the U data 430 to go back to zero. Another metric uses the measurements at each of the time points (shown as separate dots 432; a sum of the square of the differences (or absolute value) between the model output and measured values can be summed.
where cv denotes the conduction velocity (in cm/s) computed from U recorded in the electrodes. More specifically, the conduction velocity is computed as the distance between the center of the two electrodes marked as a and b in FIG. 1 divided by the time between U crosses 0 mV after the peak in these two electrodes (see FIG. 4). The two electrodes used could be any two electrodes in the simulation.
One of the advantages of including measurements of the extracellular potential in addition to optical measurements of V and Ca in the inversion procedure is that the extracellular measurements can be used to estimate the conduction velocity of the cell collection. This information could be useful for determining drug effects on the INa current (see FIG. 6). […]

dog cardiomyocytes = conditions: 50 nM, paced at 1 Hz, data from Jost et al. 2013; cited from earlier work
[1] = test system: rabbit ventricular myocyte; conditions: data from Baczkó et al. 2016, cited from earlier work
[2] = 1 μM, data from Bussek et al. (B)
[3] = 1 μM, data from Jost et al. 2005 (J)
[4] = 50 nM, paced at 1 Hz, data from Jost et al. 2013
[5] = 30 μM, data from Baczkó et al. 2016 (B)
[6] = 30 μM, data from Orvos et al. 2019 (O)

## Cc1cccc(CCN2CCC(C(=O)c3ccc(NS(C)(=O)=O)cc3)CC2)n1 [E-4031]
Human cardiomyocytes; [2]
  APD50, Human, drug measured (B) (change vs control): +27.7%
  APD90, Human, drug measured (B) (change vs control): +31.2%
Human cardiomyocytes; [3]
  APD50, Human drug measured (J) (change vs control): +54.2%
  APD90, Human drug measured (J) (change vs control): +65.1%
Zebrafish cardiomyocytes
  APD50, Zebrafish drug measured (change vs control): +38.7%
  APD90, Zebrafish drug measured (change vs control): +24.1%

## O=C(NCC1CCCCN1)c1cc(OCC(F)(F)F)ccc1OCC(F)(F)F (stereo not drawn) [Flecainide]
hiPSC-CMs
  Effect of increasing drug dose on conduction velocity: the conduction velocity is decreased

## CN(CCOc1ccc(NS(C)(=O)=O)cc1)CCc1ccc(NS(C)(=O)=O)cc1 [dofetilide]
Dog cardiomyocytes
  APD50, Dog, drug measured (change vs control): +17.5%
Human cardiomyocytes; [4]
  APD50, Human, drug measured (change vs control): +33.3%
  APD90, Human, drug measured (change vs control): +44.3%

## CC(C)NCC(O)c1ccc(NS(C)(=O)=O)cc1 (stereo not drawn) [sotalol]
Human cardiomyocytes; [5]
  APD50, Human, drug measured (B) (change vs control): +32.3%
  APD90, Human, drug measured (B) (change vs control): +37.5%
Human cardiomyocytes; [6]
  APD50, Human, drug measured (O) (change vs control): +20.6%
  APD90, Human, drug measured (O) (change vs control): +28.2%
[1]; 10 μM
  APD50, Rabbit, drug measured (change vs control): +21.2%
  APD90, Rabbit, drug measured (change vs control): +19.6%
[1]; 52 μM
  APD50, Rabbit, drug measured (change vs control): +54.3%
  APD90, Rabbit, drug measured (change vs control): +54.1%
